We go through 43 sequences from the supplement of paper PMC11208160.

This data set in a line: recombinant barcode read abundance after kanamycin selection (control-corrected) (log10(CPM+1)); higher = more efficient recombination; sequences stand for … in AGTGCAGAGAAAATCGGCCAGTTTTCTCTGCCTGCAGTCCGCATGCCGT…ATTTATGCAGCGGACTGCCTTTCTCCCAAAGTGATAAACCGGACAGTATCATGGACCGGTTTTCCCGGTAATCCGTATTTGCAAGGTTGGTTTCACT; site = the 11-nt target. An outline of the steps:
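Each value is log10(CPM+1). It describes recombination efficiency, taken as averaged, control-corrected counts per million of barcodes at recombinant junctions. The pooled E. coli library paired targets with IS621 bridge RNA target-binding loops, was co-electroporated with a donor plasmid, and was plated twice on chloramphenicol/ampicillin LB agar (control) and twice on chloramphenicol/ampicillin/kanamycin containing 0.1 mM IPTG.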
For the sequence “TAGAGGGACTGGGTTCTAACCTGTTGCGGAG [TAGAGGGCTCC_LTGcore_AC_RTGcore_CT] (site TAGAGGGCTCC) (LTG core: AC, RTG core: CT)”, the “recombinant barcode read abundance (log10)” value came to 0.265.
To “TAGAGGGCTTGGGTTCTAACCTGTTGCGGCG [TAGAGGGCTCC_LTGcore_CT_RTGcore_CG] (site TAGAGGGCTCC) (LTG core: CT, RTG core: CG)” belongs 0.972.
To “TAGAGGGCTTGGGTTCTAACCTGTTGCGGGC [TAGAGGGCTCC_LTGcore_CT_RTGcore_GC] (site TAGAGGGCTCC) (LTG core: CT, RTG core: GC)” belongs 1.36; to “TAGAGGGCTTGGGTTCTAACCTGTTGCGGGG [TAGAGGGCTCC_LTGcore_CT_RTGcore_CC] (site TAGAGGGCTCC) (LTG core: CT, RTG core: CC)”, 0.241; to “TAGAGGGCTTGGGTTCTAACCTGTTGCGGTA [TAGAGGGCTCC_LTGcore_CT_RTGcore_TA] (site TAGAGGGCTCC) (LTG core: CT, RTG core: TA)”, 0.144.
As to “TAGAGGGGATGGGTTCTAACCTGTTGCGGTC [TAGAGGGCTCC_LTGcore_GA_RTGcore_GA] (site TAGAGGGCTCC) (LTG core: GA, RTG core: GA)”, the “recombinant barcode read abundance (log10)” value is 0.0627.
The same measure for “TAGAGGGGCTGGGTTCTAACCTGTTGCGGAG [TAGAGGGCTCC_LTGcore_GC_RTGcore_CT] (site TAGAGGGCTCC) (LTG core: GC, RTG core: CT)”: 0.284.
With “TAGAGGGTCTGGGTTCTAACCTGTTGCGGAG [TAGAGGGCTCC_LTGcore_TC_RTGcore_CT] (site TAGAGGGCTCC) (LTG core: TC, RTG core: CT)”, the “recombinant barcode read abundance (log10)” value was 0.506.
“TAGAGGGTGTGGGTTCTAACCTGTTGCGGCA [TAGAGGGCTCC_LTGcore_TG_RTGcore_TG] (site TAGAGGGCTCC) (LTG core: TG, RTG core: TG)”: the “recombinant barcode read abundance (log10)” value turned out to be 0.623.
Consider “TCGCGACAGTGGGTTCTAACCTGTTGCCGAG [TCGCGACCTCG_LTGcore_AG_RTGcore_CT] (site TCGCGACCTCG) (LTG core: AG, RTG core: CT)”, for which the “recombinant barcode read abundance (log10)” value was determined as 0.161.
The same measure for “TCGCGACCTTGGGTTCTAACCTGTTGCCGAA [TCGCGACCTCG_LTGcore_CT_RTGcore_TT] (site TCGCGACCTCG) (LTG core: CT, RTG core: TT)”: 0.666; for “TCGCGACCTTGGGTTCTAACCTGTTGCCGAG [TCGCGACCTCG_LTGcore_CT_RTGcore_CT] (site TCGCGACCTCG) (LTG core: CT, RTG core: CT)”: 1.15; for “TCGCGACGCTGGGTTCTAACCTGTTGCCGGC [TCGCGACCTCG_LTGcore_GC_RTGcore_GC] (site TCGCGACCTCG) (LTG core: GC, RTG core: GC)”: 0.0326.
The same measure for “TCGCGACGGTGGGTTCTAACCTGTTGCCGCC [TCGCGACCTCG_LTGcore_GG_RTGcore_GG] (site TCGCGACCTCG) (LTG core: GG, RTG core: GG)”: 0.0807.
To “TCGCGACTATGGGTTCTAACCTGTTGCCGTA [TCGCGACCTCG_LTGcore_TA_RTGcore_TA] (site TCGCGACCTCG) (LTG core: TA, RTG core: TA)” belongs 0.139.
With “TCTACCCCTTGGGTTCTAACCTGTTGCTGCA [TCTACCCCTCA_LTGcore_CT_RTGcore_TG] (site TCTACCCCTCA) (LTG core: CT, RTG core: TG)”, the “recombinant barcode read abundance (log10)” value is 0.217.
The same measure for “TCTACCCCTTGGGTTCTAACCTGTTGCTGGC [TCTACCCCTCA_LTGcore_CT_RTGcore_GC] (site TCTACCCCTCA) (LTG core: CT, RTG core: GC)”: 0.129.
Turning to “TCTACCCGCTGGGTTCTAACCTGTTGCTGAG [TCTACCCCTCA_LTGcore_GC_RTGcore_CT] (site TCTACCCCTCA) (LTG core: GC, RTG core: CT)”, the “recombinant barcode read abundance (log10)” value was found to be 0.045.
To “TCTACCCGTTGGGTTCTAACCTGTTGCTGAG [TCTACCCCTCA_LTGcore_GT_RTGcore_CT] (site TCTACCCCTCA) (LTG core: GT, RTG core: CT)” belongs 0.149; to “TCTACCCTATGGGTTCTAACCTGTTGCTGTA [TCTACCCCTCA_LTGcore_TA_RTGcore_TA] (site TCTACCCCTCA) (LTG core: TA, RTG core: TA)”, 0.0877.
To “TCTACCCTTTGGGTTCTAACCTGTTGCTGAA [TCTACCCCTCA_LTGcore_TT_RTGcore_TT] (site TCTACCCCTCA) (LTG core: TT, RTG core: TT)” belongs 0.0207; to “TCTACCCTTTGGGTTCTAACCTGTTGCTGAG [TCTACCCCTCA_LTGcore_TT_RTGcore_CT] (site TCTACCCCTCA) (LTG core: TT, RTG core: CT)”, 0.0279.
For “TGATACCAGTGGGTTCTAACCTGTTGCGTAG [TGATACCCTAC_LTGcore_AG_RTGcore_CT] (site TGATACCCTAC) (LTG core: AG, RTG core: CT)”, the “recombinant barcode read abundance (log10)” value was determined as 0.0989.
The same measure for “TGATACCATTGGGTTCTAACCTGTTGCGTAG [TGATACCCTAC_LTGcore_AT_RTGcore_CT] (site TGATACCCTAC) (LTG core: AT, RTG core: CT)”: 0.0337.
For the sequence “TGATACCCGTGGGTTCTAACCTGTTGCGTAG [TGATACCCTAC_LTGcore_CG_RTGcore_CT] (site TGATACCCTAC) (LTG core: CG, RTG core: CT)”, the “recombinant barcode read abundance (log10)” value was found to be 0.907.
To “TGATACCCGTGGGTTCTAACCTGTTGCGTCG [TGATACCCTAC_LTGcore_CG_RTGcore_CG] (site TGATACCCTAC) (LTG core: CG, RTG core: CG)” belongs 0.0552.
To “TGATACCCTTGGGTTCTAACCTGTTGCGTTG [TGATACCCTAC_LTGcore_CT_RTGcore_CA] (site TGATACCCTAC) (LTG core: CT, RTG core: CA)” belongs 1.25; to “TGATACCGCTGGGTTCTAACCTGTTGCGTGC [TGATACCCTAC_LTGcore_GC_RTGcore_GC] (site TGATACCCTAC) (LTG core: GC, RTG core: GC)”, 0.107; to “TGATACCGGTGGGTTCTAACCTGTTGCGTCC [TGATACCCTAC_LTGcore_GG_RTGcore_GG] (site TGATACCCTAC) (LTG core: GG, RTG core: GG)”, 0.115.
Regarding “TGATACCTGTGGGTTCTAACCTGTTGCGTAG [TGATACCCTAC_LTGcore_TG_RTGcore_CT] (site TGATACCCTAC) (LTG core: TG, RTG core: CT)”, the “recombinant barcode read abundance (log10)” value came out at 0.064.
On to “TGTATTCCCTGGGTTCTAACCTGTTGCCTGG [TGTATTCCTAG_LTGcore_CC_RTGcore_CC] (site TGTATTCCTAG) (LTG core: CC, RTG core: CC)”, for which the “recombinant barcode read abundance (log10)” value came to 0.267.
To “TGTATTCCTTGGGTTCTAACCTGTTGCCTAT [TGTATTCCTAG_LTGcore_CT_RTGcore_AT] (site TGTATTCCTAG) (LTG core: CT, RTG core: AT)” belongs 0.192; to “TGTATTCCTTGGGTTCTAACCTGTTGCCTCC [TGTATTCCTAG_LTGcore_CT_RTGcore_GG] (site TGTATTCCTAG) (LTG core: CT, RTG core: GG)”, 0.364.
With “TGTATTCCTTGGGTTCTAACCTGTTGCCTGT [TGTATTCCTAG_LTGcore_CT_RTGcore_AC] (site TGTATTCCTAG) (LTG core: CT, RTG core: AC)”, the “recombinant barcode read abundance (log10)” value amounted to 0.0232.
Consider “TGTATTCGATGGGTTCTAACCTGTTGCCTTC [TGTATTCCTAG_LTGcore_GA_RTGcore_GA] (site TGTATTCCTAG) (LTG core: GA, RTG core: GA)”, for which the “recombinant barcode read abundance (log10)” value amounted to 0.138.
Turning to “TGTATTCGGTGGGTTCTAACCTGTTGCCTCC [TGTATTCCTAG_LTGcore_GG_RTGcore_GG] (site TGTATTCCTAG) (LTG core: GG, RTG core: GG)”, the “recombinant barcode read abundance (log10)” value was 0.0849.
To “TGTATTCGTTGGGTTCTAACCTGTTGCCTAC [TGTATTCCTAG_LTGcore_GT_RTGcore_GT] (site TGTATTCCTAG) (LTG core: GT, RTG core: GT)” belongs 0.00818; to “TGTATTCTATGGGTTCTAACCTGTTGCCTTA [TGTATTCCTAG_LTGcore_TA_RTGcore_TA] (site TGTATTCCTAG) (LTG core: TA, RTG core: TA)”, 0.0243.
To “TGTATTCTTTGGGTTCTAACCTGTTGCCTAG [TGTATTCCTAG_LTGcore_TT_RTGcore_CT] (site TGTATTCCTAG) (LTG core: TT, RTG core: CT)” belongs 0.242; to “TTATAAACTTGGGTTCTAACCTGTTGCCTAG [TTATAAACTAG_LTGcore_CT_RTGcore_CT] (site TTATAAACTAG) (LTG core: CT, RTG core: CT)”, 0.894; to “TTATAAACTTGGGTTCTAACCTGTTGCCTCG [TTATAAACTAG_LTGcore_CT_RTGcore_CG] (site TTATAAACTAG) (LTG core: CT, RTG core: CG)”, 0.154.
“TTATAAACTTGGGTTCTAACCTGTTGCCTGC [TTATAAACTAG_LTGcore_CT_RTGcore_GC] (site TTATAAACTAG) (LTG core: CT, RTG core: GC)”: the “recombinant barcode read abundance (log10)” value worked out at 0.178.
In the case of “TTATAAACTTGGGTTCTAACCTGTTGCCTTG [TTATAAACTAG_LTGcore_CT_RTGcore_CA] (site TTATAAACTAG) (LTG core: CT, RTG core: CA)”, the “recombinant barcode read abundance (log10)” value worked out at 0.173.
